System: U266 cells
Assay: HLA class I ligand presentation upon carfilzomib treatment on U266 cells (LC-MS/MS)
Type: cell-based, human
Set-up: key to modulation upon carfilzomib-treatment 24 #1 / modulation upon carfilzomib-treatment 24 #2 / modulation upon carfilzomib-treatment 24 #3 / modulation upon carfilzomib-treatment 48 #1 / modulation upon carfilzomib-treatment 48 #2 / modulation upon carfilzomib-treatment 48 #3: −1: significantly down-modulated; 0: not signifcant/not detected; 1: significantly up-modulated
Details: U266 cells, vs mock-treated controls; for modulation upon carfilzomib-treatment 24 #1 / modulation upon carfilzomib-treatment 24 #2 / modulation upon carfilzomib-treatment 24 #3: 24 h after carfilzomib treatment (100 nM, 1 h); for modulation upon carfilzomib-treatment 24 #1 / modulation upon carfilzomib-treatment 48 #1: biological replicate #1; for modulation upon carfilzomib-treatment 24 #2 / modulation upon carfilzomib-treatment 48 #2: biological replicate #2; for modulation upon carfilzomib-treatment 24 #3 / modulation upon carfilzomib-treatment 48 #3: biological replicate #3; for modulation upon carfilzomib-treatment 48 #1 / modulation upon carfilzomib-treatment 48 #2 / modulation upon carfilzomib-treatment 48 #3: 48 h after carfilzomib treatment (100 nM, 1 h)
Protocol: HLA class I and II molecules were isolated using standard immunoaffinity purification as described using the pan-HLA class I specific mAb W6/32, the pan-HLA class II specific mAb T039 and the HLA-DR specific mAB L243 (produced in house).
HLA ligand extracts were analyzed in 5 technical replicates as described previously. In brief, peptide samples were separated by nanoflow HPLC (RSLCnano, ThermoFisher) using a 50 μm×25 cm PepMap RSLC column (Thermo Fisher) and a gradient ranging from 2.4 to 32.0% acetonitrile over the course of 90 min. Eluting peptides were analyzed in an online coupled LTQ Orbitrap XL mass spectrometer (Thermo Fisher) using a top 5 CID (collision induced dissociation) fragmentation method.
Data processing was performed as described previously. In brief, the Mascot search engine (Mascot 2.2.04; Matrix Science, London, UK) was implemented to search the human proteome as comprised in the Swiss-Prot database (20,279 reviewed protein sequences, September 2013) without enzymatic restriction. Potential mutated HLA ligands were searched implementing a database containing the human proteome concatenated with proteins containing single amino acid variants (SAVs) listed in the COSMIC database (http://cancer.sanger.ac.uk/cosmic/). Only recurrent SAVs described in 2 or more samples of hematological origin were included. Oxidized methionine was allowed as a dynamic modification. The false discovery rate was estimated using the Percolator algorithm and set to 5%. Peptide lengths were limited to 8-12 amino acids for HLA class I and 12-25 amino acids for HLA class II. Protein inference was disabled, allowing for multiple protein annotations of peptides. HLA annotation was performed using SYFPEITHI [46] or an extended in-house database. Experimental validation of peptide identifications and HLA annotations was performed by mass spectrometric and functional characterization of synthetic peptides for a subset of peptides.
The inventors quantitatively assessed HLA class I ligand presentation during proteasome inhibitor therapy. Observed was a considerable plasticity of the HLA class I ligandome after treatment with carfilzomib with 17.9±1.1% of MM.1S ligands and 11.2±0.7% of U266 ligands (mean of three biological replicates ±s.d.) showing significant modulation (fold-change ≥4, Po0.01 after Benjamini-Hochberg correction) at t24 h compared with mock-treated controls. Briefly, Cultured MCLs (MM.1S and U266) and primary myeloma samples were incubated with carfilzomib (100 nM, Kyprolis®, available, e.g., from Onyx Pharmaceuticals, Inc.) as an example for a proteasome inhibitor for a 1-h period, followed by three washes in PBS (Gibco) and recultured for additional 24 or 48 h. Controls were incubated with vehicle control (glucose 5%) for 1 h, followed by identical washing and incubation for 24 or 48 h. Experiments were conducted in three biological replicates where indicated.

Sequence | modulation upon carfilzomib-treatment 24 #1 | modulation upon carfilzomib-treatment 24 #2 | modulation upon carfilzomib-treatment 24 #3 | modulation upon carfilzomib-treatment 48 #1 | modulation upon carfilzomib-treatment 48 #2 | modulation upon carfilzomib-treatment 48 #3
GEVAPSMFL | 0 | 0 | 0 | 0 | 0 | 0
KLPLPLPPRL | 0 | 0 | 0 | 0 | 0 | 0
KAVNPGRSL | 0 | 0 | 0 | 0 | 0 | 0
RVFPYSVFY | −1 | 0 | 0 | −1 | −1 | −1
KLSSLIILM | 0 | 0 | 0 | 0 | 0 | 0
KTEVHIRPK | 0 | 0 | 0 | 0 | 0 | 0
SPYLRPLTL | 0 | 0 | 0 | 0 | 0 | 0
KILKPVKKK | 0 | 0 | 0 | 0 | 0 | 0
KAMEAASSL | −1 | −1 | −1 | −1 | −1 | −1
ALWGRTTLK | 0 | 0 | 0 | 0 | 0 | 0
REEGTPLTL | 0 | 0 | 0 | 0 | 0 | 0
RPGPPTRPL | 0 | 0 | 0 | 0 | 0 | 0
